The data set is described as follows: Waters ACQUITY UPLC BEH C18, 100 × 2.1 mm, 1.7 µm, 40 °C, 0.3 to 0.4 mL/min, estimated dead time 0.63 min; A: water + 0.1% formic acid; B: methanol + 0.1% formic acid; gradient (min/%B) 0/0.5 0.1/0.5 10/80 10.1/99.5 12/99.5. The following applies: stereoisomer not certain.
Consider `C=CCNC(=O)C=Cc1ccc(O)c(OC)c1`, for which the LC retention time was 2.86 min.

With `C=CCc1ccc(O)c(-c2ccc(O)c(CC=C)c2)c1`, the LC retention time is 8.63 min.

For the compound `CC(C)C(O)(C(=O)OCC1=CCN2CCC(O)C12)C(C)O` (centres undefined), the LC retention time was 2.75 min.

Take `CC(CCC1(O)OC2CC3C4CC=C5CC(OC6OC(CO)C(OC7OC(C)C(O)C(O)C7O)C(O)C6OC6OC(C)C(O)C(O)C6O)CCC5(C)C4CCC3(C)C2C1C)COC1OC(CO)C(O)C(O)C1O` (centres undefined): the LC retention time was 5.05 min.

Turning to `Cc1ncc(COC2OC(CO)C(O)C(O)C2O)c(CO)c1O` (centres undefined), the LC retention time was 1.7 min.

Turning to `CC(C)=CCCC(C)(OC1OC(COC2OCC(O)C(O)C2O)C(O)C(O)C1O)C1CCC2(C)C1C(O)CC1C3(C)CCC(OC4OC(CO)C(O)C(O)C4OC4OC(CO)C(O)C(O)C4O)C(C)(C)C3CCC12C` (centres undefined), the LC retention time is 6.14 min.

Consider `CC1OC(Oc2cc(O)c3c(=O)c(OC4OC(COC5OC(CO)C(O)C(O)C5O)C(O)C(O)C4O)c(-c4ccc(O)cc4)oc3c2)C(O)C(O)C1O` (centres undefined), for which the LC retention time is 3.62 min.

As for `O=C(CCc1ccc(O)cc1)c1c(O)c(C2OC(CO)C(O)C(O)C2O)c(O)c(C2OC(CO)C(O)C(O)C2O)c1O` (centres undefined), the LC retention time was 4.01 min.

Consider `CCC(C)C(NC(=O)C(N)C(C)C)C(=O)O` (centres undefined), for which the LC retention time is 2.88 min.

As for `CC1CCC2(OC1)OC1C(O)C3C4CCC5CC(OC6OC(CO)C(OC7OC(CO)C(O)C(OC8OCC(O)C(O)C8O)C7OC7OC(CO)C(O)C(OC8OC(CO)C(O)C(O)C8O)C7O)C(O)C6O)C(O)CC5(C)C4CCC3(C)C1C2C` (centres undefined), the LC retention time is 6.99 min.

For the compound `COc1ccc2c(c1)OC(OC1OC(C(=O)O)C(O)C(O)C1O)C(O)N2` (centres undefined), the LC retention time is 2.19 min.

Turning to `CS(=O)CCCCC#N` (centres undefined), the LC retention time is 2.21 min.

On to `OCC1OC(Oc2cc3c(O)cc(O)cc3[o+]c2-c2ccc(O)c(O)c2)C(O)C(O)C1O` (centres undefined), for which the LC retention time was 2.91 min.

On to `O=c1cc(-c2ccc(O)cc2)oc2c(C3OC(CO)C(O)C(O)C3O)c(O)c(C3OC(CO)C(O)C(O)C3O)c(O)c12` (centres undefined), for which the LC retention time was 3.3 min.

Regarding `O=c1cc(-c2ccc(O)c(O)c2)oc2cc(O)cc(O)c12`, the LC retention time is 5.34 min.

In the case of `O=c1c(OC2OC(CO)C(O)C(O)C2O)c(-c2ccc(O)c(O)c2)oc2cc(O)cc(O)c12` (centres undefined), the LC retention time was 4.03 min.

Regarding `COc1cc2c(cc1OC)-c1cc3ccc(OC)c(OC)c3c[n+]1CC2`, the LC retention time was 4.96 min.

Turning to `O=C(C=Cc1ccc(O)cc1)OC1C(Oc2c(-c3ccc(O)cc3)oc3cc(O)cc(O)c3c2=O)OC(CO)C(O)C1O` (centres undefined), the LC retention time is 5.32 min.

As to `CC(CCC1(O)OC2CC3C4CCC5(O)CC(OC6OC(CO)C(O)C(O)C6O)C(O)CC5(C)C4CCC3(C)C2C1C)COC1OC(CO)C(O)C(O)C1O` (centres undefined), the LC retention time is 4.69 min.

`COC(=O)C1(O)CC23CCCN4CCC5(c6ccc7c(c6NC15CC2)OCO7)C43` (centres undefined): the LC retention time is 3.61 min.

Consider `O=c1ccc2cc(OC3OC(CO)C(O)C(O)C3O)c(O)cc2o1` (centres undefined), for which the LC retention time was 2.87 min.

`CS(=O)CCCCCCCCC#N` (centres undefined): the LC retention time was 3.03 min.

In the case of `O=C(C=Cc1ccc(O)cc1)NCCCCNCCCNC(=O)C=Cc1ccc(O)cc1`, the LC retention time is 3.83 min.

`CC1CCC2(OC1)OC1CC3C4CC=C5CC(O)CC(OC6OCC(O)C(O)C6OC6OC(C)C(O)C(O)C6O)C5(C)C4CCC3(C)C1C2C` (centres undefined): the LC retention time is 8.57 min.

Regarding `COc1ccc(-c2cc(=O)c3c(O)cc(OC4OC(CO)C(O)C(O)C4OC4OC(C)C(O)C(O)C4O)cc3o2)cc1O` (centres undefined), the LC retention time was 4.47 min.

For the compound `COc1ccc(-c2coc3cc(OC4OC(CO)C(O)C(O)C4O)cc(O)c3c2=O)cc1` (centres undefined), the LC retention time was 5.73 min.

As to `O=C1CC(c2ccc(O)cc2)Oc2cc(O)cc(O)c21` (centres undefined), the LC retention time is 5.95 min.

Take `COc1cc(C=CC(=O)NCCCCN=C(N)N)ccc1O`: the LC retention time is 3.22 min.

For `CC(CCC1(O)OC2CC3C4CCC5CC(OC6OC(CO)C(O)C(O)C6OC6OC(CO)C(O)C(O)C6O)C(O)CC5(C)C4CCC3(C)C2C1C)COC1OC(CO)C(O)C(O)C1O` (centres undefined), the LC retention time was 4.64 min.

On to `COc1cc(C=CC(=O)OC2OC(CO)C(O)C(O)C2O)cc(OC)c1O` (centres undefined), for which the LC retention time was 3.54 min.

On to `O=C(O)CC(O)(CC(=O)O)C(=O)O`, for which the LC retention time is 1.57 min.

`O=C(C=Cc1ccc(O)cc1)NCCCCN(CCCNC(=O)C=Cc1ccc(O)cc1)C(=O)C=Cc1ccc(O)cc1`: the LC retention time was 5.62 min.

Turning to `O=c1[nH]c(=O)c2ncn(C3OC(CO)C(O)C3O)c2[nH]1` (centres undefined), the LC retention time is 2.07 min.

Take `CCC(C)C(N)C(=O)O` (centres undefined): the LC retention time was 1.94 min.

Regarding `O=C(O)CCCCCCC(=O)O`, the LC retention time is 4.1 min.

On to `CN(C)CCc1ccc(O)cc1`, for which the LC retention time was 2.05 min.

Turning to `COc1ccc2c(c1)OC(O)C(=O)N2O` (centres undefined), the LC retention time was 2.59 min.

With `CCC(C)C(NC(=O)C([NH3+])C(C)C)C(=O)[O-]` (centres undefined), the LC retention time is 2.88 min.

Turning to `O=C(O)C1OC(OC2C(Oc3cc(O)c4c(=O)cc(-c5ccc(O)cc5)oc4c3)OC(C(=O)O)C(O)C2O)C(O)C(O)C1O` (centres undefined), the LC retention time was 4.05 min.

With `CN1CCCC1c1cccnc1` (centres undefined), the LC retention time is 1.62 min.

For the compound `CC(=O)OCC1OC(Oc2cc(O)c3c(=O)cc(-c4ccc(O)cc4)oc3c2)C(O)C(O)C1O` (centres undefined), the LC retention time is 5.14 min.

As to `CS(=O)CCCCCCCC(N)C(=O)O` (centres undefined), the LC retention time was 2.28 min.

For the compound `COc1cc(-c2oc3cc(O)cc(O)c3c(=O)c2OC2OC(CO)C(O)C(O)C2O)ccc1OC1OC(CO)C(O)C(O)C1O` (centres undefined), the LC retention time was 3.23 min.

In the case of `COc1cc(C=CC(=O)OC2CC(O)(C(=O)O)CC(O)C2O)ccc1O` (centres undefined), the LC retention time is 3.71 min.

Regarding `CC12CC3(O)OC(O1)C1(COC(=O)c4ccccc4)C3CC21OC1OC(CO)C(O)C(O)C1O` (centres undefined), the LC retention time is 3.78 min.

As for `COc1cc(-c2cc(=O)c3c(O)cc(OC4OC(COC(=O)CC(=O)O)C(O)C(O)C4O)cc3o2)ccc1O` (centres undefined), the LC retention time is 4.8 min.

With `O=C(C=Cc1ccc(O)cc1)OC1CC(O)(C(=O)O)CC(O)C1O` (centres undefined), the LC retention time was 3.08 min.

As to `CC1CCC2(NC1)OC1CC3C4CCC5CC(OC6OC(CO)C(OC7OC(CO)C(O)C(OC8OCC(O)C(O)C8O)C7OC7OC(CO)C(O)C(O)C7O)C(O)C6O)CCC5(C)C4CCC3(C)C1C2C` (centres undefined), the LC retention time is 4.81 min.

`COC(=O)C1C(O)CCC2CN3CCc4c([nH]c5ccccc45)C3CC21` (centres undefined): the LC retention time is 4.35 min.

As for `CC1OC(OCC2OC(Oc3cc(O)c4c(c3)OC(c3ccc(O)cc3)CC4=O)C(O)C(O)C2O)C(O)C(O)C1O` (centres undefined), the LC retention time was 4.28 min.

As to `CC1(C)CCC2(C(=O)O)CCC3(C)C(=CCC4C5(C)CC(O)C(O)C(C)(C(=O)OC6OC(COC(=O)CC(=O)O)C(O)C(O)C6O)C5CCC43C)C2C1` (centres undefined), the LC retention time was 7.45 min.

For `CS(=O)C=CCCN=C=S` (centres undefined), the LC retention time is 3.77 min.

Consider `CC1(C)CC2C3=CCC4C5(C)CCC(OC6OC(C(=O)O)C(O)C(O)C6OC6OC(CO)C(O)C(O)C6OC6OC(CO)C(O)C(O)C6O)C(C)(CO)C5CCC4(C)C3(C)CCC2(C)CC1OC1OCC(O)C(O)C1O` (centres undefined), for which the LC retention time was 5.5 min.

`CN1CCc2cc3c(cc2C(=O)Cc2ccc4c(c2C1)OCO4)OCO3`: the LC retention time was 4.36 min.

Turning to `O=C(Cc1c[nH]c2ccccc12)NC(Cc1ccccc1)C(=O)O` (centres undefined), the LC retention time is 6.34 min.

In the case of `O=c1c(OC2OC(CO)C(O)C(O)C2O)c(-c2cc(O)c(O)c(OC3OC(CO)C(O)C(O)C3O)c2)oc2cc(O)cc(O)c12` (centres undefined), the LC retention time is 3.34 min.

For `CC(C)=CCCC(C)(O)C1CCC2(C)C1C(O)CC1C3(C)CCC(OC4OC(CO)C(O)C(O)C4O)C(C)(C)C3CCC12C` (centres undefined), the LC retention time is 9.84 min.

Regarding `O=c1cc(-c2ccc(O)cc2)oc2cc(O)cc(O)c12`, the LC retention time was 5.89 min.

Regarding `CCC=CCC=CCC=CCCCCCCCC(=O)OCC(O)COP(=O)([O-])OCC[N+](C)(C)C` (centres undefined), the LC retention time is 8.93 min.

For the compound `C=CC1C(OC2OC(CO)C(O)C(O)C2O)OC=C(C(=O)OC)C1CC=O` (centres undefined), the LC retention time was 3.84 min.

`CCC=CCC=CC=CC(CCCCCCCC(=O)O)OO` (centres undefined): the LC retention time was 6.77 min.

As for `CC1OC(Oc2cc(O)c3c(=O)c(OC4OC(CO)C(O)C(O)C4OC4OC(C)C(O)C(O)C4O)c(-c4ccc(O)c(O)c4)oc3c2)C(O)C(O)C1O` (centres undefined), the LC retention time was 3.09 min.

Regarding `O=c1c2ccccc2nc2n1CCC2`, the LC retention time is 3.94 min.

In the case of `OCC1OC(OCC2OC(O)(CO)C(O)C2O)C(O)C(O)C1O` (centres undefined), the LC retention time was 1.74 min.

With `CN1CCc2cc3c(c4c2C1Cc1ccccc1-4)OCO3` (centres undefined), the LC retention time is 4.89 min.

For the compound `CCCCCC=CC=CC(CCCCCCCC(=O)O)OO` (centres undefined), the LC retention time is 8 min.

As to `COc1cc(C=CC=O)cc(OC)c1O`, the LC retention time was 4.73 min.

As to `Nc1ccc(C(=O)NC(CCC(=O)O)C(=O)O)cc1` (centres undefined), the LC retention time was 3.22 min.

As for `CC(C)=CCc1c(O)ccc2c1OCC(c1ccc(O)cc1O)C2=O` (centres undefined), the LC retention time was 7.51 min.

Turning to `CCCCCCCCCCCCC(O)C(O)C(COC1OC(CC(C(=O)O)C(=O)O)C(O)C(O)C1O)NC(C)=O` (centres undefined), the LC retention time is 4.79 min.

`COc1cc(C=Cc2ccc(O)cc2)cc(OC)c1`: the LC retention time was 8.02 min.

Consider `CC1OC(OC2C(OC3C(OC4CCC5(C)C(CCC6(C)C5C=CC5=C7CC(C)(C)CC(O)C7(C)CCC56C)C4(C)CO)OC(C(=O)O)C(O)C3O)OC(C(=O)O)C(O)C2O)C(O)C(O)C1O` (centres undefined), for which the LC retention time is 7.57 min.

With `O=c1ccn(C2OC(CO)C(O)C2O)c(=O)[nH]1` (centres undefined), the LC retention time was 1.8 min.

As for `COc1cc(-c2cc(=O)c3c(O)cc(OC4OC(C(=O)O)C(O)C(O)C4OC4OC(C(=O)O)C(O)C(O)C4O)cc3o2)ccc1O` (centres undefined), the LC retention time is 4.05 min.

The record behind these values is the RepoRT retention time repository.
